The results in this text go back to ChEMBL document CHEMBL1201862, “PubChem BioAssay data set” (2004).

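Results reflect a 48-hour exposure of cells in 96-well plates to compound at five concentrations. Here, GI50 denotes the concentration required for 50% inhibition of growth.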 Activity calls are given as the source filed them. Cut-off read from the data, not from the text of the source: active = GI50 up to about 1.1 µM and inactive = higher. A value given as a limit tells only on which side of the number the result lay.

What all share (assay): DTP human tumour cell line panel, 48 h
For assay [1], the system named is A498.
Assay [2] relates to A549.
In assay [3] the test system is ACHN.
The test system of assay [4] is CAKI-1.
For assay [5], the system named is HT-29.
The subject of assay [6] is Hs-578T.
The test system of assay [7] is K562.
Assay [8] has as its system KM12.
Assay [9] relates to LOX IMVI.
In assay [10] the test system is M14.
In assay [11] the test system is Malme-3M.
In assay [12] the test system is NCI-H23.
The test system of assay [13] is NCI/ADR-RES.
For assay [14], the system named is OVCAR-5.
The test system of assay [15] is PC-3.
The test system of assay [16] is SK-OV-3.
Assay [17] concerns SNB-75.
Assay [18] concerns SR.
For assay [19], the system named is SW-620.
In assay [20] the test system is UACC-62.

For orientation: GI50 means the concentration giving 50% growth inhibition. `CCN(CC)CC(C)(C)C(=O)/C=C/c1ccc(/C=C/C(=O)C(C)(C)CN(CC)CC)cc1`: the GI50 is 1.7 µM (inactive) in assay [1]; 1.97 µM (inactive) in assay [2]; 1.34 µM (inactive) in assay [3]; 0.733 µM (active) in [4]; 0.211 µM (active) in assay [5]; 0.462 µM (active) in assay [6]. The GI50 in assay [7] was 0.0935 µM (active); in assay [8], 0.879 µM (active); in assay [9] it was 0.263 µM (active); in assay [10], 1.03 µM (active); in assay [11] it was 1.12 µM (inactive); in assay [12] it was 0.991 µM (active). Also, the GI50 in assay [13] is 1.09 µM (active); in [14], 1.54 µM (inactive); in assay [15], 0.414 µM (active); in [16], 2.09 µM (inactive); in assay [17], 1.61 µM (inactive); in assay [18], 0.0893 µM (active). Besides, the GI50 was 0.211 µM (active) in [19] and 1.46 µM (inactive) in [20].

As for `CCCc1cn2c(/C=N/NC(=N)N)c(-c3ccc(Cl)c([N+](=O)[O-])c3)nc2s1`, the GI50 in [1] is 1.66 µM (inactive); in [2] it was 1.73 µM (inactive); in assay [3] it was 1.69 µM (inactive); in assay [4], 1.82 µM (inactive); in assay [5], 0.826 µM (active); in assay [6], 2.01 µM (inactive). Further, the GI50 in [7] was 1.37 µM (inactive); in assay [8], 1.33 µM (inactive); in assay [9], 1.7 µM (inactive); in [10], 1.91 µM (inactive); in assay [11], 1.68 µM (inactive); in [12], 1.74 µM (inactive). The GI50 in assay [13] is 2.21 µM (inactive); in assay [14], 1.55 µM (inactive); in assay [15], 1.81 µM (inactive); in [16], 1.5 µM (inactive); in assay [17] it was 1.74 µM (inactive); in assay [18], 1.25 µM (inactive). Moreover, the GI50 in [19] was 1.07 µM (active); in assay [20], 1.95 µM (inactive).

`O=C1C=CC2(O[C@H](c3ccccc3)[C@@H](c3ccccc3)O2)C(SC(=O)c2ccccc2)C1` (stereo not given in full): the GI50 in assay [1] is 7.71 µM (inactive); in [2], 4.49 µM (inactive); in [3], 1.37 µM (inactive); in [4], 1.67 µM (inactive); in assay [5], 2.03 µM (inactive); in assay [6] it was 1.62 µM (inactive). In addition, the GI50 in [7] is 1.32 µM (inactive); in assay [8] it was 2.27 µM (inactive); in assay [9], 1.12 µM (inactive); in assay [10], 1.33 µM (inactive); in assay [11], 2.27 µM (inactive); in assay [12] it was 1.63 µM (inactive). Further, the GI50 in [13] was 1.57 µM (inactive); in assay [14], 1.69 µM (inactive); in assay [15] it was 2.13 µM (inactive); in assay [16], 2.32 µM (inactive); in assay [17], 2.09 µM (inactive); in [18], 0.256 µM (active). Also, the GI50 was 0.288 µM (active) in assay [19] and 2.34 µM (inactive) in assay [20].

In the case of `CCOC(=O)C1=C(C)N(Cc2ccccc2)C2(O)C=CC(O)=C3C(=O)c4ccccc4C(=O)C312` (stereo not given), the GI50 was 23.6 µM (inactive) in assay [1]; 15.3 µM (inactive) in assay [2]; 17.4 µM (inactive) in assay [3]; 12.1 µM (inactive) in assay [4]; 31.5 µM (inactive) in assay [5]; 22.4 µM (inactive) in assay [6]. Moreover, the GI50 in assay [7] was 15.1 µM (inactive); in assay [8], 12.1 µM (inactive); in [9], 14.1 µM (inactive); in assay [10], 4.99 µM (inactive); in assay [11], 2.43 µM (inactive); in assay [12], 8.61 µM (inactive). For the same compound, the GI50 was 0.182 µM (active) in assay [13]; 15.8 µM (inactive) in [14]; 19.2 µM (inactive) in assay [15]; 29.6 µM (inactive) in [16]; 22.1 µM (inactive) in assay [17]; 4.37 µM (inactive) in assay [18]. Further, the figures for the GI50 in assay [19] and in assay [20] were 13.6 µM (inactive) and 14.7 µM (inactive), respectively.

On to `COc1ccc(C2Oc3ccc(Cl)cc3C=C2[N+](=O)[O-])cc1OC` (stereo not given), for which the GI50 in [1] is 3.37 µM (inactive); in [2], 1.83 µM (inactive); in [3] it was 1.43 µM (inactive); in [4] it was 1.67 µM (inactive); in [5], 1 µM (active); in assay [6], 1.07 µM (active). Besides, the GI50 is 0.164 µM (active) in assay [7]; 1.48 µM (inactive) in [8]; 0.32 µM (active) in assay [9]; 0.231 µM (active) in assay [10]; 1.75 µM (inactive) in assay [11]; 1.61 µM (inactive) in assay [12]. Further, the GI50 was 0.456 µM (active) in assay [13]; 1.5 µM (inactive) in [14]; 1.32 µM (inactive) in [15]; 2.3 µM (inactive) in assay [16]; 1.13 µM (inactive) in assay [17]; 0.0661 µM (active) in [18]. Also, the values for the GI50 in [19] and in [20] were 0.188 µM (active) and 1.5 µM (inactive), respectively.

`CC(Br)CN(CC(C)Br)c1ccc2c(c1)Cc1ccccc1-2` (stereo not given): the GI50 in [1] was 13 µM (inactive); in assay [2], 12.1 µM (inactive); in [3], 6.64 µM (inactive); in assay [4], 9.2 µM (inactive); in [5], 13 µM (inactive); in assay [6], 13.4 µM (inactive). In addition, the GI50 in [7] was 5.92 µM (inactive); in assay [8], 16.5 µM (inactive); in assay [9], 8.11 µM (inactive); in [10] it was 11.6 µM (inactive); in [11], 11.7 µM (inactive); in assay [12], 12 µM (inactive). The GI50 in assay [13] was 13.5 µM (inactive); in [14] it was 18.9 µM (inactive); in assay [15], 10.8 µM (inactive); in assay [16] it was 16 µM (inactive); in [17] it was 12.2 µM (inactive); in assay [18] it was 1.76 µM (inactive). Besides, the GI50 in assay [19] was 14.2 µM (inactive); in assay [20] it was 11.9 µM (inactive).

For the compound `CN1CCC(O)(OC(=O)C(c2ccccc2)C2(O)CCCC2)CC1` (stereo not given), the GI50 in [1], in assay [2], in assay [3], in assay [4], in [5] and in [6] was > 100 µM (inactive) throughout. The GI50 in [7], in assay [8], in assay [9], in assay [10], in [11] and in assay [12] was > 100 µM (inactive) throughout. For the same compound, the GI50 in assay [13], in assay [14], in assay [15], in [16], in assay [17] and in assay [18] was > 100 µM (inactive) in each case. The GI50 in assay [19] and in [20] was > 100 µM (inactive) throughout.

In the case of `CN(C)c1ccc(/C=C/C=C(/C#N)c2ccccc2)cc1`, the GI50 in [1] is 24.3 µM (inactive); in assay [2] it was 32.1 µM (inactive); in assay [3] it was 34.4 µM (inactive); in assay [4], 33.5 µM (inactive); in [5] it was 7.57 µM (inactive); in assay [6] it was 21.9 µM (inactive). Moreover, the GI50 in assay [7] is 4.22 µM (inactive); in assay [8], 4.8 µM (inactive); in assay [9], 11.2 µM (inactive); in assay [10] it was 15.8 µM (inactive); in assay [11], 14 µM (inactive); in assay [12], 36.9 µM (inactive). Also, the GI50 in assay [13] was 6.92 µM (inactive); in [14], > 62.7 µM (inactive); in assay [15] it was 39.3 µM (inactive); in assay [16], 34.8 µM (inactive); in assay [17], 28.4 µM (inactive); in assay [18], 3.64 µM (inactive). The GI50 is 6.34 µM (inactive) in [19] and 19.2 µM (inactive) in assay [20].

For the compound `O=[N+]([O-])C(C(Cl)=C(Cl)Cl)=C(N1CCCCC1)N1CCCCC1`, the GI50 in [1] was > 100 µM (inactive); in [2], > 100 µM (inactive); in [3] it was > 100 µM (inactive); in assay [4] it was 58.6 µM (inactive); in assay [5] it was > 100 µM (inactive); in assay [6] it was 13.8 µM (inactive). The GI50 is 90.2 µM (inactive) in assay [7]; > 100 µM (inactive) in [8]; 55 µM (inactive) in assay [9]; > 100 µM (inactive) in assay [10]; 39.5 µM (inactive) in assay [11]; > 100 µM (inactive) in assay [12]. Further, the GI50 was > 100 µM (inactive) in assay [13]; > 100 µM (inactive) in [14]; > 100 µM (inactive) in [15]; > 100 µM (inactive) in [16]; > 100 µM (inactive) in assay [17]; 33.8 µM (inactive) in [18]. Further, the GI50 in assay [19] and in [20] was > 100 µM (inactive) each time.

For `C[C@]12CC[C@H]3[C@@H](CC=C4C[C@@H](O)CC[C@@]43C)[C@@H]1C/C(=C/c1ccccc1)[C@@H]2O`, the GI50 is 17.2 µM (inactive) in assay [1]; > 35.6 µM (inactive) in assay [2]; 16.4 µM (inactive) in assay [3]; 30.3 µM (inactive) in assay [4]; 28.3 µM (inactive) in [5]; 43 µM (inactive) in assay [6]. The GI50 is > 23.6 µM (inactive) in assay [7]; 23 µM (inactive) in [8]; > 33.6 µM (inactive) in [9]; > 45.1 µM (inactive) in [10]; 27.5 µM (inactive) in assay [11]; 15.9 µM (inactive) in assay [12]. Moreover, the GI50 was 17.7 µM (inactive) in assay [13]; > 46.7 µM (inactive) in assay [14]; 18.9 µM (inactive) in assay [15]; 37.6 µM (inactive) in assay [16]; > 41.9 µM (inactive) in assay [17]; 3.85 µM (inactive) in assay [18]. The GI50 in [19] is > 51.8 µM (inactive); in assay [20] it was 17.8 µM (inactive).
